Values quoted from earlier work, collected in patent US11191839B2, “Composition for treatment of infertility in a subject” (priority 2015, dated 2021).

Test system: couples with unexplained infertility
Settings: pertubation with low doses before artificial insemination; Edelstam et al. 2008

CCN(CC)CC(=O)Nc1c(C)cccc1C [lidocaine, Lidocaine]
Pregnancy rates: increase pregnancy rates
